Experimental data reported in patent publication US20110123623A1, “RHAMNOLIPID MECHANISM” (priority 2009, published 2011).
Where two headings read alike, the source gives them in different places.

Key:
[1] = target: human dopamine D2L (human recombinant) (Homo sapiens, UniProt P14416); test: Dopamine D2L receptor binding of [3H]Spiperone; conditions: 100 μM in 0.5 DMSO
Method: (§1) At the concentration of 100 μM Di-rhamnolipid W3CTS in 0.5% DMSO, Di-rhamnolipid W3CTS inhibited 100% dopamine D1 (human recombinant) binding of [^3H] SCH23390. At the same concentration of 100 μM W3CTS in 0.5 DMSO measuring binding of [^3H]Spiperone to human dopamine D2L (human recombinant) was inhibited by 53%.

[2] = system: Guinea pig lung LTC4 synthetase; test: Leukotriene C4 synthetase inhibition (EIA); assay type: biochemical; conditions: highest concentration 1,000 μM/ml; DMSO 0.5%
Method: Leukotriene C4 (LTC4) synthetase is involved in the formation of LTC4 from LTA4. Taken together with other assays for enzymes involved in the lipoxygenase pathway (e.g. 5-lipoxygenase, LTA4 hydrolase), a locus of action can be established for agents which inhibit the formation of leukotrienes. Guinea pig lung LTC4 synthetase was used. Test compound and/or vehicle was pre-incubated with 180 μg/ml enzyme in phosphate buffer pH 7.8 for 15 minutes at 37° C. The reaction is initiated by the addition of 2.5 μg/ml LTA4 methyl ester for another 30 minute incubation period and terminated by further addition of ice-cold methanol. Determination of the amount of LTC4 formed is read spectrophotometrically by enzyme immunoassay kit (EIA). W3CTS was screened at 1,000; 100; 10; and 1 μM/ml. Solvent was DMSO 0.5%. Sulfazine was used as a reference. Inhibition was 81% at the highest concentration of 1,000 μM/ml.

[3] = target: dopamine D1 (human recombinant) (Homo sapiens, UniProt P21728); test: Dopamine D1 receptor binding of [3H]SCH23390; conditions: 100 μM in 0.5% DMSO
Method: as §1

[4] = system: patients; test: Treatment of patients with seborrheic dermatitis, lichen planus and dermatitis circumscripta unilocularis; assay type: in vivo, human
Method: Twelve psoriatic hospital bed patients, and one patient with seborrheic dermatitis and psoriasis, one patient with lichen planus and one with dermatitis cicumscripta unilocullaris as an out clinic patient were recruited as study volunteers.
Patients with seborhheic dermatitis, lichen planus and dermatitis unilocularis circumscripta eczematoides were cured.
This condition, confirmed with clinical appearance and histopahological findings, was treated with different standard approaches, (mostly) steroids, but condition worsened with tendency to spread further to the large wound covered by thick crust. Following the treatment with 1% Di-rhamnolipid W3CTS, eucerin ointment was introduced with overnight inclusions during four weeks. […] Patient died by natural course 15 years after treatment had been finished.

[5] = system: female Swiss-Webster mice; assay type: in vivo; conditions: for MORTAL. / SIGNIFICANT FINDINGS: 7 days
Method: Multi-dose toxicity study of Di-rhamnolipid W3CTS administered subcutaneously in female Swiss-Webster mice for 7 days recovery period. The effects of 7 daily subcutaneous injections of the 99.3% pure Di-rhamnolipid W3CTS, followed by 7-day recovery period, were determined in female Swiss-Webster mice. Five groups (3 mice per group) were administered W3CTS doses at 0.012; 1, 2; 60 and 120 mg/kg/day and vehicle. All animals were observed and weighed throughout the study for clinical signs of toxicity including skin injection sites. On study Day 13 (seven days after last injection, 6 days for group 5) all animals were euthanized. The thymus, liver, kidneys, spleen, heart and lungs were weighed and preserved.
No mortality occurred at any dose level. […] Abnormal clinical observations at some animals at groups (60 and 120 mg/kg) were limited to skin lesions at the injection sites. All skin lesions were healing at termination.
At necropsy, two animals from group 120 mg/kg had moderate enlargement of the spleen and liver and adhesions between liver, spleen, kidneys and peritoneum were seen also in one animal (See Table 1).
Histopathology of spleen, thymus, and liver and selected skin site lesions was performed on tissues from high dose group animals and one control. […] Histopathologic features of skin lesions included evidence of chronic active inflammation, co-existing with progressing ulceration and/or healing.

[6] = system: nude guinea pigs; test: DNCB induced delayed type hypersensitivity in nude guinea pigs; assay type: in vivo, guinea pig
Method: The nude guinea pig is used as a test animal because of different animal skins; nude guinea pig skin is claimed to be the one closest resembling human skin.
In DNCB sensitized guinea pigs delayed type hypersensitivity reactions were induced with patches soaked with 0.25% (w/v) DNCB in ethanol/propylene glycol kept on the animals back for 24 hours. The test sites were treated twice daily during 7 days with: Dovonex ointment ([…]), 1% Di-rhamnolipid W3CTS in Vaseline, vehicle and untreated area. […] Dovonex has been improved by time.

[7] = system: chronic decubitus ulcer in humans; test: Treatment of chronic decubitus ulcer; assay type: in vivo, human; conditions: topical 0.1% eucerin ointment; single case
Source text: Treatment of Chronic Decubitus Ulcer with Di-Rhamnolipid W3CTS

[8] = system: B-lymphocyte cells isolated from the spleen of balb/c mice; test: Mouse B-cell proliferation (thymidine incorporation); assay type: cell-based
Method: T-lymphocyte cells isolated from thymus of balb/c mice weighing 17±1 g were used. Test compound and/or vehicle was incubated with the cells (4×10^6/ml) in the presence of 3 μg/ml concanavalin A (Con A) overnight. Thymidine incorporation was assessed by liquid scintillation counting. B-lymphocyte cells isolated from the spleen of balb/c mice weighing 17±1 g were used. Test compound and/or vehicle was incubated with the cells (1.5×10^6/ml) in the presence of 10 μg/ml lipopolysaccharide (LPS) in AIM-V medium pH 7.4 at 37° C., during 24 hours. [^3H]Thymidine (120 nM) was then added for an additional overnight incubation period. Thymidine incorporation was assessed by liquid scintillation counting. […] T-cells isolated from mouse thymus were inhibited at the concentration of 10 μM by 24% and in the presence of concanavalin T-cells proliferation was inhibited 43%.

[9] = system: C. albicans; test: Immunomodulation activity: C. albicans challenge survival; assay type: in vivo, mouse; conditions: 100 mg/kg i/p 24 hours before i/v C. albicans challenge; ICR male mice
Method: Di-rhamnolipid W3CTS was administered i/p (100 mg/kg) to groups of 10 ICR derived male mice weighing 24±2 g at 24 hours before i/v challenge with a suspension of C. albicans (1×10^7 cfu/mouse) sufficient to result in 90-100% mortality within 10 days in vehicle treated animals. Survival of 20 percent or more (≧20) of the animals is considered significant and indicates possible immunomodulation activity. Reference agent was lipopolysaccharide 0.3 mg/kg i/p.

[10] = Ames test
[11] = Micronucleus test in-vivo

Sequence of human dopamine D2L (human recombinant) (P14416 whole entry): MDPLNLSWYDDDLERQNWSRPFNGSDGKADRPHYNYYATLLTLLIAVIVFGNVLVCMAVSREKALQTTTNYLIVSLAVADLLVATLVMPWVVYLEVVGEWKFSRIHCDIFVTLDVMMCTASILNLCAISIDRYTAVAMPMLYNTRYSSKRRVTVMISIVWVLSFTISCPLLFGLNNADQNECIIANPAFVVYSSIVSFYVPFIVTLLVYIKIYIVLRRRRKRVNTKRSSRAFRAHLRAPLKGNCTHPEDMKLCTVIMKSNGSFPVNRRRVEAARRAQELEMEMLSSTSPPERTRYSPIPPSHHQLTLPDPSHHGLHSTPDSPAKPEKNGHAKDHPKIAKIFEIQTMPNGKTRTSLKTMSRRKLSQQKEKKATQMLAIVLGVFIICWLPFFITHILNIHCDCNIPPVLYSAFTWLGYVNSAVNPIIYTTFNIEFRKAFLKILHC
Sequence of dopamine D1 (human recombinant) (P21728 whole entry): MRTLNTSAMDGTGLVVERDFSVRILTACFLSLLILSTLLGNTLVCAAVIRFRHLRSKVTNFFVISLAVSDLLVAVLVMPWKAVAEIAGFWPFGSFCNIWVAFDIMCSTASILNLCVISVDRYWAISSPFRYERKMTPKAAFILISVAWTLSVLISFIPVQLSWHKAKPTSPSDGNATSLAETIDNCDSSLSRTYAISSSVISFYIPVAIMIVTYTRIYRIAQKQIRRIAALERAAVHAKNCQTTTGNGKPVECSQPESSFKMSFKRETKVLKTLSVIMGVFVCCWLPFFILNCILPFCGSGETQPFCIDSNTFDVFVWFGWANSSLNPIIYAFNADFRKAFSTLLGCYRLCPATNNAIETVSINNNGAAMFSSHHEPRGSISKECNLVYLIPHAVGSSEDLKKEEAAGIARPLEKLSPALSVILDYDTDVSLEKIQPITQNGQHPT

CCCCCCCC(CC(=O)O)OC(=O)CC(CCCCCCC)OC1OC(C)C(O)C(O)C1OC1OC(C)C(O)C(O)C1O (centres unmarked) [Di-rhamnolipid W3CTS]
inhibition at 100 µM [1]: 53% | Inhibition of LTC4 synthetase [2]: 81% | inhibition at 100 µM [3]: 100% | outcome in seborhheic dermatitis, lichen planus and dermatitis unilocularis circumscripta eczematoides ([4]; 1.0% eucerin ointment): cured | skin over the wound ([4]; after one year): looking normal | wound healing in dermatitis circumscripta unilocularis ([4]; person, 1% eucerin ointment, overnight inclusions during four weeks): The wound started to heal | MORTAL. ([5]; 0.012 mg/kg/day s.c.): 0/3 | SIGNIFICANT FINDINGS ([5]; 0.012 mg/kg/day s.c.): None | MORTAL. ([5]; 1.20 mg/kg/day s.c.): 0/3 | SIGNIFICANT FINDINGS ([5]; 1.20 mg/kg/day s.c.): None | MORTAL. ([5]; 60 mg/kg/day s.c.): 0/3 | Histopathology: extramedullary hematopoiesis (mice) ([5]; 120 mg/kg/day s.c.): mouse, extramedullary hematopoiesis in 2 | Histopathology: thymic involution (mice) ([5]; 120 mg/kg/day s.c.): Histopathology: thymic involution in 1 | Necroscopy findings: adhesions between the liver and the spleen, kidneys and peritoneum (mice) ([5]; 120 mg/kg/day s.c.): spleen, kidneys and peritoneum (1/3 | MORTAL. ([5]; 120 mg/kg/day s.c.): 0/3 | anti-inflammatory effect in the model ([6]; 1% in Vaseline, preliminary data): very strong anti-inflammatory effect | state of test areas by day 7 ([6]; treated twice daily during 7 days, W3CTS 1% in Vaseline): healed | healing of chronic decubitus ulcer [7]: profound beneficial effect on the healing | effect on B-cell proliferation ([8]; 10 μM in 0.5% DMSO, without LPS): did not have any effect | inhibition at 10 µM ([8]; Mus musculus, B-cell, 10 μM, in the presence of LPS): ≤ 54% | immunomodulation activity (survival of 20 percent or more considered significant) [9]: possible significant immunomodulation activity | Ames test [10]: negative | micronucleus test [11]: negative
